Source: ChEMBL document CHEMBL6096680, “Development of PRC1 Inhibitors Employing Fragment-Based Approach and NMR-Guided Optimization” (J Med Chem, 2025)
The source made the active and inactive calls. The rule behind the calls is not given here.

Legend:
Homo sapiens [1] = species: Homo sapiens; experiment: Binding affinity to 15N-labeled RING1B (10 to 116 residues)/BMI1 (1 to 104 residues) (unknown origin) extracted from Escherichia coli BL21 (DE3) cells assessed as sum of A79, G83 and T89 chemical shift perturbations at 100 uM by NMR binding analysis
Homo sapiens [2] = species: Homo sapiens; experiment: Binding affinity to 15N-labeled RING1B (10 to 116 residues)/BMI1 (1 to 104 residues) (unknown origin) extracted from Escherichia coli BL21 (DE3) cells assessed as sum of A79, G83 and T89 chemical shift perturbations at 200 uM by NMR binding analysis
Homo sapiens [3] = species: Homo sapiens; experiment: Binding affinity to 15N-labeled RING1B (10 to 116 residues)/BMI1 (1 to 104 residues) (unknown origin) extracted from Escherichia coli BL21 (DE3) cells assessed as ratio of chemical shift perturbations at 1:2 compound concentration ration by NMR binding analysis
[4] = (§1) Inhibition of 6His-tagged RING1B (10 to 116 residues)/BMI1 (1 to 104 residues) (unknown origin) extracted from Escherichia coli BL21 (DE3) cells preincubated with compound for 1 hrs followed by 3-(1-(4,26-dioxo-30-((3aS,4S,6aR)-2-oxohexahydro-1H-thieno[3,4-d]imidazol-4-yl)-7,10,13,16,19,22-hexaoxa-3,25-diazatriacontyl)-6-methoxy-1H-indol-4-yl)-5-(6-fluoro-1H-indol-4-yl)-4-isopropyl-1H-pyrrole-2-carboxylic acid addition and measured after 1 hrs by Alphascreen competition assay; set-up: species or system Homo sapiens
[5] = Binding affinity to 15N-labeled RING1B (10 to 116 residues)/BMI1 (1 to 104 residues) (unknown origin) extracted from Escherichia coli BL21 (DE3) cells assessed as dissociation constant by NMR-based fragment screening analysis; set-up: species or system Homo sapiens
[6] = as §1, with “RING1A (7” for “RING1B (10”, “113 residues)-BMI1” for “116 residues)/BMI1”; set-up: species or system Homo sapiens
[7] = Selectivity ratio of IC50 for inhibition of 6His-tagged RING1B (10 to 116 residues)-BMI1 (1 to 104 residues) (unknown origin) extracted from Escherichia coli BL21 (DE3) cells to IC50 for inhibition of 6His-tagged RING1A (7 to 113 residues)-BMI1 (1 to 104 residues) (unknown origin) extracted from Escherichia coli BL21 (DE3) cells
[8] = Binding affinity to RING1B (10 to 116 residues)/BMI1 (1 to 104 residues) (unknown origin) extracted from Escherichia coli BL21 (DE3) cells assessed as chemical shift perturbation for amide of Gly83 residue by measuring estimated dissociation constant by 1H-15N HSQC spectra based NMR titration analysis; set-up: species or system Homo sapiens
[9] = Binding affinity to RING1B (10 to 116 residues)/BMI1 (1 to 104 residues) (unknown origin) extracted from Escherichia coli BL21 (DE3) cells assessed as dissociation constant by ITC analysis; set-up: species or system Homo sapiens
[10] = (§2) Inhibition of RING1B (10 to 116 residues)-BMI1 (1 to 104 residues) (unknown origin) extracted from Escherichia coli BL21 (DE3) cells using HeLa nucleosome as substrate assessed as reduction in reduction in H2AK119 ubiquitination preincubated with compound for 1 hrs followed by flag-tagged ubiquitin and substrate addition and measured after 1 hrs by Western blot analysis; set-up: species or system Homo sapiens
Homo sapiens [11] = species: Homo sapiens; experiment: as §2; settings: time 2.0 hrs
Homo sapiens [12] = species: Homo sapiens; experiment: Binding affinity to 15N-labeled RING1A (7 to 113 residues)/BMI1 (1 to 104 residues) (unknown origin) extracted from Escherichia coli BL21 (DE3) cells assessed as chemical shift perturbation for amide of Gly83 residue at 60 to 120 uM by 1H-15N HSQC spectra based NMR titration analysis; settings: dose 60-120 µM
Homo sapiens [13] = species: Homo sapiens; experiment: Binding affinity to 15N-labeled RING1B (10 to 116 residues)/BMI1 (1 to 104 residues) (unknown origin) extracted from Escherichia coli BL21 (DE3) cells assessed as chemical shift perturbation for amide of Gly83 residue at 60 to 120 uM by 1H-15N HSQC spectra based NMR titration analysis; settings: dose 60-120 µM

| Compound | Activity (Homo sapiens [1]) | Activity (Homo sapiens [2]) | Ratio (Homo sapiens [3]) | IC50 [4] | other results |
| --- | --- | --- | --- | --- | --- |
| O=C(O)c1[nH]c(-c2cccc3[nH]ccc23)c(C2CC2)c1-c1cccc2[nH]ccc12 | 138 Hz | 211 Hz | 0.65 | 15.8 µM |  |
| CC(C)c1c(-c2cccc3[nH]c(C(=O)O)cc23)[nH]c(C(=O)O)c1-c1c(Cl)ccc2[nH]ccc12 |  |  |  | 2.2 µM |  |
| CC(C)c1c(-c2ccc3[nH]ccc3c2)[nH]c(C(=O)O)c1-c1c(Cl)ccc2[nH]ccc12 |  |  |  | 4 µM |  |
| Cc1cc(C(=O)O)[nH]c1-c1cccc2[nH]ccc12 |  |  |  |  | Kd [5]: 1400 µM |
| CC(C)c1c(-c2cc(Cl)cc3[nH]ccc23)[nH]c(C(=O)O)c1-c1c(Cl)ccc2[nH]ccc12 |  |  |  | 5.3 µM |  |
| CCc1c(-c2cccc3[nH]ccc23)[nH]c(C(=O)O)c1-c1ccccc1Cl |  |  |  |  | Kd [5]: 11.5 µM |
| CC(c1c(-c2cccc3[nH]ccc23)[nH]c(C(=O)O)c1-c1cccc2[nH]ccc12)C(F)F (stereo not drawn) | 215 Hz | 264 Hz | 0.81 | 8.2 µM | IC50 [6]: 4.3 µM; Ratio IC50 [7]: 2 |
| O=C(O)c1ccc(-c2ccccc2)[nH]1 |  |  |  |  | Kd [5]: 3600 µM |
| CC(CF)c1c(-c2cccc3[nH]ccc23)[nH]c(C(=O)O)c1-c1cccc2[nH]ccc12 (stereo not drawn) | 216 Hz | 277 Hz | 0.78 | 8 µM |  |
| CCc1c(C(=O)O)[nH]c(-c2cccc3[nH]ccc23)c1CC |  |  |  |  | Kd [8]: 250 µM |
| CCc1cc(-c2c(C(=O)O)[nH]c(-c3cc(F)cc4[nH]ccc34)c2C(C)C)c2cc[nH]c2c1 | 285 Hz | 309 Hz | 0.92 | 5.4 µM | IC50 [6]: 3.2 µM; Ratio IC50 [7]: 2 |
| CC(C)c1c(-c2cccc3[nH]ccc23)[nH]c(C(=O)O)c1-c1c(Cl)ccc2[nH]ccc12 |  |  |  | 2.9 µM |  |
| CC(CO)c1c(-c2cccc3[nH]ccc23)[nH]c(C(=O)O)c1-c1cccc2[nH]ccc12 (stereo not drawn) | 107 Hz | 172 Hz | 0.62 | 37.7 µM |  |
| CC(C)c1c(-c2cc(F)cc3[nH]ccc23)[nH]c(C(=O)O)c1-c1cccc2[nH]ccc12 | 308 Hz | 329 Hz | 0.94 | 3.3 µM | Kd [9]: 4 µM |
| CC(C)c1c(-c2cc(F)cc3[nH]ccc23)[nH]c(C(=O)O)c1-c1cc(Cl)cc2[nH]ccc12 | 280 Hz | 305 Hz | 0.92 | 2.8 µM |  |
| Cc1cc(-c2[nH]c(C(=O)O)c(-c3c(Cl)ccc4[nH]ccc34)c2C(C)C)c2cc[nH]c2c1 |  |  |  | 5.8 µM | IC50 [6]: 2.5 µM; Ratio IC50 [7]: 2 |
| Cc1ccc2[nH]ccc2c1-c1[nH]c(C(=O)O)c(-c2c(Cl)ccc3[nH]ccc23)c1C(C)C |  |  |  | 5.1 µM |  |
| CCc1c(-c2cccc3[nH]ccc23)[nH]c(C(=O)O)c1C1CCCCC1 |  |  |  |  | Kd [8]: 170 µM |
| CCc1c(-c2cccc3[nH]ccc23)[nH]c(C(=O)O)c1-c1cccc2[nH]ccc12 | 102 Hz | 163 Hz | 0.63 | 13 µM | Kd [5]: 9 µM; IC50 [10]: 19.3 µM; inhibition (Homo sapiens [11]): Dose-dependent-effect; Inhibition Of E3 Ligase Activity Of Prc1 Observed |

| Compound | Activity (Homo sapiens [1]) | Activity (Homo sapiens [2]) | Ratio (Homo sapiens [3]) | IC50 [4] | other results |
| --- | --- | --- | --- | --- | --- |
| CC(C)c1c(-c2cc(F)cc3[nH]ccc23)[nH]c(C(=O)O)c1-c1cc(F)cc2[nH]ccc12 | 320 Hz | 330 Hz | 0.97 | 4.3 µM |  |
| CC(C)c1c(-c2cc(C(F)(F)F)cc3[nH]ccc23)[nH]c(C(=O)O)c1-c1c(Cl)ccc2[nH]ccc12 |  |  |  | 7.2 µM | IC50 [10]: 6.7 µM; inhibition (Homo sapiens [11]): Dose-dependent-effect; Inhibition Of E3 Ligase Activity Of Prc1 Observed |
| COc1cc(-c2[nH]c(C(=O)O)c(-c3c(Cl)ccc4[nH]ccc34)c2C(C)C)c2cc[nH]c2c1 |  |  |  | 5 µM |  |
| CC(C)c1c(-c2cc(F)cc3[nH]ccc23)[nH]c(C(=O)O)c1-c1cc(C(F)(F)F)cc2[nH]ccc12 | 298 Hz | 319 Hz | 0.93 | 5.5 µM |  |
| Cc1cc(-c2cccc3[nH]ccc23)[nH]c1C(=O)O |  |  |  |  | Kd [8]: 1100 µM |
| CC(C)c1c(-c2cc(F)cc3cc[nH]c23)[nH]c(C(=O)O)c1-c1c(Cl)ccc2[nH]ccc12 |  |  |  | 4.4 µM |  |
| CC(C)c1c(-c2ccc3cc[nH]c3c2)[nH]c(C(=O)O)c1-c1c(Cl)ccc2[nH]ccc12 |  |  |  | 10.9 µM |  |
| CC(C)c1c(-c2cccc3[nH]c(CO)cc23)[nH]c(C(=O)O)c1-c1c(Cl)ccc2[nH]ccc12 |  |  |  | 2 µM |  |
| CCc1cc(-c2[nH]c(C(=O)O)c(-c3c(Cl)ccc4[nH]ccc34)c2C(C)C)c2cc[nH]c2c1 |  |  |  | 6.3 µM |  |
| CCc1c(-c2cccc3[nH]ccc23)[nH]c(C(=O)O)c1-c1ccccc1 |  |  |  |  | Kd [8]: 30 µM |
| CC(C)c1c(-c2cccc3[nH]ccc23)[nH]c(C(=O)O)c1-c1cccc2[nH]ccc12 | 295 Hz | 311 Hz | 0.95 | 3.6 µM | Kd [9]: 6.5 µM |
| O=C(O)c1ccc(-c2cccc3[nH]ccc23)[nH]1 |  |  |  |  | Kd [8]: 2200 µM |
| COc1cc(-c2c(C(=O)O)[nH]c(-c3cc(F)cc4[nH]ccc34)c2C(C)C)c2cc[nH]c2c1 | 318 Hz | 338 Hz | 0.92 | 2.5 µM |  |
| O=C(O)c1ccc(-c2ccccc2)s1 |  |  |  |  | Kd [5]: 7000 µM |
| COc1cc(-c2c(C(=O)O)[nH]c(-c3cc(F)cc4[nH]ccc34)c2C(C)C)c2ccn(CCNC(=O)CCOCCOCCOCCOCCOCCOCCNC(=O)CCCC[C@@H]3SC[C@@H]4NC(=O)N[C@@H]43)c2c1 |  |  |  |  | Activity (Homo sapiens [12]): Active; Activity (Homo sapiens [13]): Active |
| CCOc1cc(-c2c(C(=O)O)[nH]c(-c3cc(F)cc4[nH]ccc34)c2C(C)C)c2cc[nH]c2c1 | 313 Hz | 331 Hz | 0.95 | 2.3 µM |  |
| CCC(C)c1c(-c2cccc3[nH]ccc23)[nH]c(C(=O)O)c1-c1cccc2[nH]ccc12 (stereo not drawn) | 268 Hz | 291 Hz | 0.92 | 5.6 µM |  |
| Cc1cc(-c2c(C(=O)O)[nH]c(-c3cc(F)cc4[nH]ccc34)c2C(C)C)c2cc[nH]c2c1 | 261 Hz | 319 Hz | 0.82 | 4.8 µM | IC50 [6]: 2.6 µM; Ratio IC50 [7]: 2 |
